Assay results: PubChem BioAssay (NCI)
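48-hour exposure; five concentrations; linearly interpolated endpoints. At the GI50, growth is halved. TGI: total growth inhibition.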

How the values were obtained:
Experiment in all cases: inhibition of tumour cell growth, NCI panel, 48 h
T-47D breast = test system: T-47D breast
RXF 393 renal = test system: RXF 393 renal
SK-MEL-2 melanoma = test system: SK-MEL-2 melanoma
MCF7 breast = test system: MCF7 breast
M14 melanoma = test system: M14 melanoma
LOX IMVI melanoma = test system: LOX IMVI melanoma
SF-539 CNS = test system: SF-539 CNS
786-0 renal = test system: 786-0 renal
CCRF-CEM leukemia = test system: CCRF-CEM leukemia
OVCAR-3 ovarian = test system: OVCAR-3 ovarian
HOP-62 NSCLC = test system: HOP-62 NSCLC
K-562 leukemia = test system: K-562 leukemia
RPMI-8226 leukemia = test system: RPMI-8226 leukemia
PC-3 prostate = test system: PC-3 prostate
OVCAR-8 ovarian = test system: OVCAR-8 ovarian
NCI-H226 lung = test system: NCI-H226 lung
CAKI-1 renal = test system: CAKI-1 renal
HCT-116 colon = test system: HCT-116 colon
SF-268 CNS = test system: SF-268 CNS
SK-MEL-28 melanoma = test system: SK-MEL-28 melanoma
ACHN renal = test system: ACHN renal
HS 578T breast = test system: HS 578T breast
HL-60(TB) leukemia = test system: HL-60(TB) leukemia
MDA-MB-468 breast = test system: MDA-MB-468 breast
UACC-257 melanoma = test system: UACC-257 melanoma
SNB-19 CNS = test system: SNB-19 CNS
SN12C renal = test system: SN12C renal
EKVX NSCLC = test system: EKVX NSCLC
COLO 205 colon = test system: COLO 205 colon
KM12 colon = test system: KM12 colon
HCT-15 colon = test system: HCT-15 colon
MALME-3M melanoma = test system: MALME-3M melanoma
UACC-62 melanoma = test system: UACC-62 melanoma
A498 renal = test system: A498 renal
MDA-MB-231 breast = test system: MDA-MB-231 breast
A549 NSCLC = test system: A549 NSCLC
U251 CNS = test system: U251 CNS
UO-31 renal = test system: UO-31 renal
TK-10 renal = test system: TK-10 renal
DU-145 prostate = test system: DU-145 prostate
OVCAR-4 ovarian = test system: OVCAR-4 ovarian
BT-549 breast = test system: BT-549 breast
SW-620 colon = test system: SW-620 colon
NCI-H23 lung = test system: NCI-H23 lung
NCI-H460 lung = test system: NCI-H460 lung
HCC-2998 colon = test system: HCC-2998 colon
SNB-75 CNS = test system: SNB-75 CNS
HOP-92 NSCLC = test system: HOP-92 NSCLC
NCI/ADR-RES ovarian = test system: NCI/ADR-RES ovarian
SK-MEL-5 melanoma = test system: SK-MEL-5 melanoma
SK-OV-3 ovarian = test system: SK-OV-3 ovarian
SF-295 CNS = test system: SF-295 CNS
OVCAR-5 ovarian = test system: OVCAR-5 ovarian
MOLT-4 leukemia = test system: MOLT-4 leukemia
NCI-H522 lung = test system: NCI-H522 lung
IGROV1 ovarian = test system: IGROV1 ovarian
MDA-MB-435 = test system: MDA-MB-435

COc1ccc(C(=O)/C=C/c2cc(F)cc(C(F)(F)F)c2)cc1S(N)(=O)=O
GI50 (T-47D breast): 11 µM
TGI (T-47D breast): 25.8 µM
GI50 (RXF 393 renal): 3.97 µM
TGI (RXF 393 renal): 16.1 µM
GI50 (SK-MEL-2 melanoma): 15.5 µM
TGI (SK-MEL-2 melanoma): 31.2 µM
GI50 (MCF7 breast): 1.69 µM
TGI (MCF7 breast): 4.42 µM
GI50 (M14 melanoma): 3.14 µM
TGI (M14 melanoma): 11.2 µM
GI50 (LOX IMVI melanoma): 1.42 µM
TGI (LOX IMVI melanoma): 2.72 µM
GI50 (SF-539 CNS): 1.73 µM
TGI (SF-539 CNS): 3.17 µM
GI50 (786-0 renal): 1.84 µM
TGI (786-0 renal): 3.79 µM
GI50 (CCRF-CEM leukemia): 1.5 µM
TGI (CCRF-CEM leukemia): 6.79 µM
GI50 (OVCAR-3 ovarian): 3.62 µM
TGI (OVCAR-3 ovarian): 11.9 µM
GI50 (HOP-62 NSCLC): 7.34 µM
TGI (HOP-62 NSCLC): 22.2 µM
GI50 (K-562 leukemia): 2.05 µM
TGI (K-562 leukemia): > 100 µM
GI50 (RPMI-8226 leukemia): 2.13 µM
TGI (RPMI-8226 leukemia): 7.47 µM
GI50 (PC-3 prostate): 2.48 µM
TGI (PC-3 prostate): 7.3 µM
GI50 (OVCAR-8 ovarian): 3.21 µM
TGI (OVCAR-8 ovarian): 11.4 µM
GI50 (NCI-H226 lung): 8.55 µM
TGI (NCI-H226 lung): 23.6 µM
GI50 (CAKI-1 renal): 4.65 µM
TGI (CAKI-1 renal): 17.7 µM
GI50 (HCT-116 colon): 1.58 µM
TGI (HCT-116 colon): 3.39 µM
GI50 (SF-268 CNS): 12 µM
TGI (SF-268 CNS): 43.3 µM
GI50 (SK-MEL-28 melanoma): 2.63 µM
TGI (SK-MEL-28 melanoma): 7.2 µM
GI50 (ACHN renal): 1.72 µM
TGI (ACHN renal): 3.28 µM
GI50 (HS 578T breast): 15.9 µM
TGI (HS 578T breast): 54.9 µM
GI50 (HL-60(TB) leukemia): 2.33 µM
TGI (HL-60(TB) leukemia): 8.4 µM
GI50 (MDA-MB-468 breast): 1.66 µM
TGI (MDA-MB-468 breast): 3.34 µM
GI50 (UACC-257 melanoma): 11.3 µM
TGI (UACC-257 melanoma): 25.8 µM
GI50 (SNB-19 CNS): 3.07 µM
TGI (SNB-19 CNS): 11.3 µM
GI50 (SN12C renal): 1.88 µM
TGI (SN12C renal): 4.59 µM
GI50 (EKVX NSCLC): 5.07 µM
TGI (EKVX NSCLC): 18.3 µM
GI50 (COLO 205 colon): 3.79 µM
TGI (COLO 205 colon): 13.2 µM
GI50 (KM12 colon): 1.96 µM
TGI (KM12 colon): 4.08 µM
GI50 (HCT-15 colon): 1.59 µM
TGI (HCT-15 colon): 3.39 µM
GI50 (MALME-3M melanoma): 12.1 µM
TGI (MALME-3M melanoma): 24.7 µM
GI50 (UACC-62 melanoma): 3.28 µM
TGI (UACC-62 melanoma): 13.6 µM
GI50 (A498 renal): 13.9 µM
TGI (A498 renal): 26.8 µM
GI50 (MDA-MB-231 breast): 2.06 µM
TGI (MDA-MB-231 breast): 4.81 µM
GI50 (A549 NSCLC): 4.3 µM
TGI (A549 NSCLC): 23.1 µM
GI50 (U251 CNS): 1.75 µM
TGI (U251 CNS): 3.79 µM
GI50 (UO-31 renal): 1.94 µM
TGI (UO-31 renal): 5.1 µM
GI50 (TK-10 renal): 4.69 µM
TGI (TK-10 renal): 18.5 µM
GI50 (DU-145 prostate): 12 µM
TGI (DU-145 prostate): 25 µM
GI50 (OVCAR-4 ovarian): 5.86 µM
TGI (OVCAR-4 ovarian): 18.7 µM
GI50 (BT-549 breast): 6.4 µM
TGI (BT-549 breast): 19.5 µM
GI50 (SW-620 colon): 1.81 µM
TGI (SW-620 colon): 3.55 µM
GI50 (NCI-H23 lung): 2.23 µM
TGI (NCI-H23 lung): 5.48 µM
GI50 (NCI-H460 lung): 3.41 µM
TGI (NCI-H460 lung): 11.8 µM
GI50 (HCC-2998 colon): 1.98 µM
TGI (HCC-2998 colon): 3.71 µM
GI50 (SNB-75 CNS): 2.45 µM
TGI (SNB-75 CNS): 13.2 µM
GI50 (HOP-92 NSCLC): 6.32 µM
TGI (HOP-92 NSCLC): 21.4 µM
GI50 (NCI/ADR-RES ovarian): 2.16 µM
TGI (NCI/ADR-RES ovarian): 5.44 µM
GI50 (SK-MEL-5 melanoma): 5.52 µM
TGI (SK-MEL-5 melanoma): 17.9 µM
GI50 (SK-OV-3 ovarian): 15.7 µM
TGI (SK-OV-3 ovarian): 31.8 µM
GI50 (SF-295 CNS): 3.62 µM
TGI (SF-295 CNS): 13.4 µM
GI50 (OVCAR-5 ovarian): 7.88 µM
TGI (OVCAR-5 ovarian): 20.6 µM
GI50 (MOLT-4 leukemia): 2.44 µM
TGI (MOLT-4 leukemia): 9.1 µM
GI50 (NCI-H522 lung): 1.9 µM
TGI (NCI-H522 lung): 3.98 µM
GI50 (IGROV1 ovarian): 3.15 µM
TGI (IGROV1 ovarian): 11.6 µM
GI50 (MDA-MB-435): 2.02 µM
TGI (MDA-MB-435): 4.91 µM
